From PubChem BioAssay (NCI) come the findings set out here.

Some test systems named below: LOX IMVI melanoma; SK-MEL-28 melanoma; SK-MEL-2 melanoma; A549 NSCLC; MCF7 breast; MOLT-4 leukemia; HCT-116 colon; A498 renal; NCI-H522 lung; MALME-3M melanoma.
Holding throughout (test): NCI tumour cell line growth inhibition, 48 h

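How tested: cells in 96-well plates exposed to compound for 48 hours at five concentrations. At the GI50, growth is halved. TGI: concentration producing complete growth inhibition.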 Bounds are passed on as bounds.

With `CN(C)c1ccc(/C=C(\NC(=O)c2ccccc2)C(=O)NC(CC(=O)O)C(=O)O)cc1` (stereo not drawn), the TGI with LOX IMVI melanoma, with SK-MEL-28 melanoma, in the assay on SK-MEL-2 melanoma, in the assay with A549 NSCLC, in the assay on MCF7 breast and in the assay with MOLT-4 leukemia was greater than 100 µM each time. Moreover, the values for the TGI with HCT-116 colon, with A498 renal and in the assay on NCI-H522 lung were greater than 100 µM, greater than 100 µM and 46.8 µM, respectively.

On to `OCc1cn(Cc2ccccc2)c2ccccc12`, for which the TGI is greater than 45.3 µM in the assay on LOX IMVI melanoma; greater than 100 µM in the assay on SK-MEL-28 melanoma; 24.6 µM in the assay on SK-MEL-2 melanoma; greater than 100 µM in the assay on A549 NSCLC; greater than 18 µM in the assay on MCF7 breast; greater than 100 µM with MOLT-4 leukemia. Further, the TGI in the assay with HCT-116 colon is greater than 26.3 µM; in the assay on NCI-H522 lung, 17.1 µM; with MALME-3M melanoma it was 19.5 µM.

`c1ccc(-c2c(-c3ccccc3)[n+](Cc3ccc4ccccc4c3)c(-c3ccc(-c4nc5ccccc5s4)cc3)n2Cc2ccc3ccccc3c2)cc1`: the GI50 in the assay with SK-MEL-28 melanoma is 0.368 µM; in the assay with A549 NSCLC, 0.176 µM; in the assay on MCF7 breast, 0.0587 µM; with MOLT-4 leukemia, 0.139 µM; with A498 renal it was 0.156 µM; in the assay on MALME-3M melanoma, 0.0536 µM. The TGI with SK-MEL-28 melanoma was found to be 1.57 µM; in the assay on A549 NSCLC, 1.55 µM; with MCF7 breast, 0.337 µM; in the assay on MOLT-4 leukemia, 0.759 µM; in the assay on A498 renal, 0.542 µM; with MALME-3M melanoma it was 0.204 µM.

For the molecule `COc1cccc(C2c3cc4c(cc3OC(O)C2C)OCO4)c1OC` (stereo not drawn), the TGI was 23.5 µM in the assay on LOX IMVI melanoma; 39.5 µM in the assay on SK-MEL-28 melanoma; 25.6 µM with SK-MEL-2 melanoma; 26 µM with A549 NSCLC; greater than 100 µM in the assay on MCF7 breast; 18.5 µM with MOLT-4 leukemia. In addition, the TGI in the assay with HCT-116 colon is 12.3 µM; in the assay with A498 renal, 16.2 µM; with MALME-3M melanoma, 32.9 µM.

`C[C@@H]1CC[C@@]2(C)C(C(=O)O)=CCCC2[C@@]1(C)CC(=O)c1ccoc1` (stereo partly drawn): the TGI in the assay on LOX IMVI melanoma, in the assay with SK-MEL-28 melanoma, with SK-MEL-2 melanoma, with A549 NSCLC, in the assay on MCF7 breast and in the assay on MOLT-4 leukemia was greater than 25 µM in each case. For the same molecule, the TGI in the assay on HCT-116 colon, in the assay on A498 renal and in the assay with NCI-H522 lung was greater than 25 µM each time.

In the case of `CCc1c(O)cc(=O)oc1-c1ccc(OC)c(OC)c1`, the TGI with LOX IMVI melanoma, in the assay on SK-MEL-28 melanoma, in the assay with SK-MEL-2 melanoma, in the assay on A549 NSCLC, in the assay on MCF7 breast and with MOLT-4 leukemia was greater than 100 µM each time. The TGI in the assay on HCT-116 colon, in the assay on A498 renal and in the assay with NCI-H522 lung was greater than 100 µM each time.

As to `O=C(c1ccco1)N(C(=O)N1CCCCC1)c1ccccc1`, the TGI in the assay on LOX IMVI melanoma, in the assay on SK-MEL-28 melanoma, with SK-MEL-2 melanoma, in the assay with MCF7 breast, in the assay on MOLT-4 leukemia and in the assay with HCT-116 colon was greater than 100 µM in each case. Also, the TGI with A498 renal and in the assay on MALME-3M melanoma was greater than 100 µM each time.

Consider `[N-]=[N+]=CC(=O)C1CCCN1C(=O)c1ccccc1` (stereo not drawn), for which the TGI in the assay with LOX IMVI melanoma, with SK-MEL-28 melanoma, in the assay on SK-MEL-2 melanoma, in the assay on A549 NSCLC, with MCF7 breast and with MOLT-4 leukemia was greater than 10 µM in each case. For the same molecule, the TGI in the assay with HCT-116 colon, in the assay on A498 renal and in the assay with MALME-3M melanoma was greater than 10 µM throughout.

With `COc1ccc(C2Oc3ccc(Cl)cc3C=C2[N+](=O)[O-])cc1` (stereo not drawn), the TGI in the assay with LOX IMVI melanoma, in the assay with SK-MEL-28 melanoma, in the assay with A549 NSCLC, with MCF7 breast, with MOLT-4 leukemia and in the assay with HCT-116 colon was greater than 100 µM throughout. The TGI in the assay with NCI-H522 lung and in the assay with MALME-3M melanoma was greater than 100 µM each time.

With `COc1ccc(N=Nc2c(-c3c(OC)cc4occc4c3OC)[nH]c(=O)c(C#N)c2C)cc1`, the TGI with LOX IMVI melanoma, in the assay with SK-MEL-28 melanoma, in the assay with SK-MEL-2 melanoma, in the assay with A549 NSCLC, in the assay with MCF7 breast and in the assay with MOLT-4 leukemia was greater than 100 µM in each case. Moreover, the TGI with HCT-116 colon, in the assay on NCI-H522 lung and in the assay with MALME-3M melanoma was greater than 100 µM in each case.

On to `S=C(Cc1ccc2c(c1)Sc1ccccc1O2)N1CCOCC1`, for which the TGI with LOX IMVI melanoma, with SK-MEL-28 melanoma, in the assay on SK-MEL-2 melanoma, with A549 NSCLC, in the assay with MCF7 breast and in the assay with MOLT-4 leukemia was greater than 100 µM throughout. The values for the TGI in the assay with HCT-116 colon, in the assay with A498 renal and in the assay on MALME-3M melanoma were greater than 100 µM, greater than 100 µM and 90.2 µM, respectively.

Regarding `CCOC(=O)/C=C/c1nc(C#N)c(N)o1`, the TGI with LOX IMVI melanoma, with SK-MEL-28 melanoma, with SK-MEL-2 melanoma, with A549 NSCLC, in the assay on MCF7 breast and in the assay with MOLT-4 leukemia was greater than 100 µM throughout. Further, the TGI in the assay on HCT-116 colon and in the assay with A498 renal was greater than 100 µM throughout.

With `NS(=O)(=O)c1nnc(NC(=O)N(c2ccccc2)c2ccccc2)s1`, the TGI was 40.2 µM in the assay with LOX IMVI melanoma; greater than 100 µM in the assay with SK-MEL-28 melanoma; 89.1 µM in the assay with SK-MEL-2 melanoma; greater than 100 µM in the assay with A549 NSCLC; greater than 100 µM with MCF7 breast; greater than 100 µM with MOLT-4 leukemia. Also, the TGI in the assay on HCT-116 colon worked out at 83.8 µM; with NCI-H522 lung it was 40.9 µM; in the assay on MALME-3M melanoma it was 62.5 µM.

Regarding `COCOc1ccc(C(=O)Oc2cccc3c2OC(C)(C)O3)c(OCOC)c1`, the TGI with LOX IMVI melanoma, with SK-MEL-28 melanoma, in the assay with MCF7 breast, with MOLT-4 leukemia, in the assay on HCT-116 colon and with A498 renal was greater than 100 µM in each case.

With `Cc1ccccc1-c1nc2c(N)nc(N)nc2nc1N`, the TGI in the assay with LOX IMVI melanoma, with SK-MEL-28 melanoma, in the assay on SK-MEL-2 melanoma, in the assay with A549 NSCLC, in the assay with MCF7 breast and in the assay with MOLT-4 leukemia was greater than 100 µM in each case. Besides, the TGI with HCT-116 colon and in the assay with NCI-H522 lung was greater than 100 µM each time.

Consider `c1ccc2c(c1)SCCCS2`, for which the TGI with LOX IMVI melanoma, in the assay on SK-MEL-28 melanoma, in the assay on A549 NSCLC, in the assay on MCF7 breast, in the assay on MOLT-4 leukemia and in the assay on HCT-116 colon was greater than 100 µM throughout. Moreover, the TGI with NCI-H522 lung is greater than 100 µM.

With `CN(C)C(=O)C(F)(F)C(c1ccc(F)cc1)C1C(=O)N(C)C(=O)N(C)C1=O` (stereo not drawn), the TGI with LOX IMVI melanoma, in the assay with SK-MEL-28 melanoma, in the assay on SK-MEL-2 melanoma, in the assay with A549 NSCLC, in the assay with MCF7 breast and in the assay on MOLT-4 leukemia was greater than 100 µM in each case. Besides, the TGI in the assay with HCT-116 colon and in the assay on A498 renal was greater than 100 µM in each case.

Turning to `COC(=O)/C=C(\C)CC/C=C(\C)CCC1OC1(C)C` (stereo not drawn), the TGI is 11 µM with LOX IMVI melanoma; 23.3 µM in the assay on SK-MEL-28 melanoma; 21.2 µM in the assay on SK-MEL-2 melanoma; 24.1 µM with A549 NSCLC; 21.8 µM in the assay on MCF7 breast; 24.4 µM with MOLT-4 leukemia. Also, the figures for the TGI with HCT-116 colon, in the assay with A498 renal and in the assay on MALME-3M melanoma were 24.3 µM, 28.6 µM and 29.1 µM, respectively.

For `COC(=O)CNC(=O)C(CSC(=O)OCC1c2ccccc2-c2ccccc21)NC(=O)CCC(NC(=O)OCC1c2ccccc2-c2ccccc21)C(=O)OC` (stereo not drawn), the TGI in the assay on LOX IMVI melanoma was 21.1 µM; in the assay with SK-MEL-28 melanoma it was greater than 100 µM; in the assay on SK-MEL-2 melanoma, 31.1 µM; with A549 NSCLC, 27.5 µM; in the assay with MCF7 breast, 42.8 µM; in the assay with MOLT-4 leukemia it was 56.8 µM. For the same molecule, the TGI was 32.5 µM in the assay with HCT-116 colon, 17 µM with NCI-H522 lung and 76.8 µM in the assay on MALME-3M melanoma.

Regarding `COc1cc2nc(-c3ccc(Cl)cc3)cc(OCCCN3CCOCC3)c2cc1OC`, the GI50 in the assay on LOX IMVI melanoma was 0.217 µM; in the assay with A549 NSCLC it was 2.02 µM; in the assay on MCF7 breast it was 2.49 µM; in the assay on MOLT-4 leukemia it was 2.85 µM; in the assay with HCT-116 colon, 1.59 µM; in the assay with A498 renal it was 1.59 µM. For the same molecule, the TGI in the assay with LOX IMVI melanoma was 0.593 µM; in the assay on A549 NSCLC, greater than 100 µM; in the assay on MCF7 breast, greater than 100 µM; in the assay on MOLT-4 leukemia, greater than 100 µM; in the assay with HCT-116 colon, greater than 100 µM; with A498 renal, 4.02 µM.

On to `CN(C)CCNC(=O)c1cccc2c1Nc1ccccc1S2`, for which the TGI came to 26.2 µM with LOX IMVI melanoma; 27.7 µM in the assay with SK-MEL-28 melanoma; 30.3 µM with SK-MEL-2 melanoma; 28.8 µM with A549 NSCLC; 27 µM in the assay on MCF7 breast; 29.5 µM in the assay on MOLT-4 leukemia. Further, the TGI with HCT-116 colon is 25 µM; with A498 renal, 24.5 µM; with MALME-3M melanoma, 29.2 µM.

As to `Clc1cccc(-c2sc(-c3cccs3)cc2Cc2cccs2)c1`, the TGI with LOX IMVI melanoma, in the assay on SK-MEL-28 melanoma, in the assay with A549 NSCLC, with MCF7 breast, in the assay with MOLT-4 leukemia and in the assay with HCT-116 colon was greater than 10 µM each time. Also, the TGI in the assay with NCI-H522 lung and in the assay on MALME-3M melanoma was greater than 10 µM in each case.
